Broadly, the EC50 is the concentration needed to bring the measured effect to its halfway point.

EC50 data for 7 molecules are collected here from ChEMBL document CHEMBL5727499, “Derivatives and methods of treating hepatitis B infections” (2020).

The nature of the experiment: HBV Replication Inhibition Assay: HBV replication inhibition by the compounds of this invention could be determined in cells infected or transfected with HBV, or cells with stably integrated HBV, such as HepG2.2.15 cells (Sells et al. 1987). In this example, HepG2.2.15 cells were maintained in cell culture medium containing 10% fetal bovine serum (FBS), Geneticin, L-glutamine, penicillin and streptomycin. HepG2.2.15 cells could be seeded in 96-well plates at a density of 40,000 cells/well and be treated with serially diluted compounds at a final DMSO concentration of 0.5% either alone or in combination by adding drugs in a checker box format. Cells were incubated with compounds for three days, after which medium was removed and fresh medium containing compounds was added to cells and incubated for another three days. At day 6, supernatant was removed and treated with DNase at 37° C. for 60 minutes, followed by enzyme inactivation at 75° C. for 15 minutes. Encapsidated HBV DNA was released from the virions and covalently linked HBV polymerase by incubating in lysis buffer (Affymetrix QS0010) containing 2.5 μg proteinase K at 50° C. for 40 minutes. HBV DNA was denatured by addition of 0.2 M NaOH and detected using a branched DNA (BDNA) QuantiGene assay kit according to manufacturer recommendation (Affymetrix). HBV DNA levels could also be quantified using qPCR, based on amplification of encapsidated HBV DNA extraction with QuickExtraction Solution (Epicentre Biotechnologies) and amplification of HBV DNA using HBV specific PCR probes that can hybridize to HBV DNA and a fluorescently labeled probe for quantitation. In addition, cell viability of HepG2.2.15 cells incubated with test compounds alone or in combination was determined by using CellTitre-Glo reagent according to the manufacturer protocol (Promega). The mean background signal from wells containing only culture medium was subtracted from all other samples, and percent inhibition at each compound concentration was calculated by normalizing to signals from HepG2.2.15 cells treated with 0.5% DMSO using equation E1.% inhibition=(DMSOave−Xi)/DMSOave×100% E1:where DMSOave is the mean signal calculated from the wells that were treated with DMSO control (0% inhibition control) and Xi is the signal measured from the individual wells. EC50 values, effective concentrations that achieved 50% inhibitory effect, were determined by non-linear fitting using Graphpad Prism software (San Diego, Calif.) and equation E2Y=Y min+(Y max−Y min)/(1+10(Log EC50−X)×HillSlope) E2:where Y represents percent inhibition values and X represents the logarithm of compound concentrations. The conditions noted are these: HepG2.2.15.
As to `CC1Cc2[nH]nc(C3CCC3)c2CN1C(=O)Nc1ccc(F)c(F)c1` (configuration not stated), the half-maximal effective concentration (EC50) entry was “in the range around 55 nM”.

Consider `O=C(Nc1ccc(F)c(Br)c1)N1CCc2[nH]nc(C3CCC3)c2C1`, for which the EC50 result is “in the range around 55 nM”. Regarding `CC1Cc2[nH]nc(C3CCC3)c2CN1C(=O)Nc1cccc(Br)c1F` (configuration not stated), the EC50 result is “in the range around 300 nM”. With `CC1Cc2[nH]nc(C3CCC3)c2CN1C(=O)Nc1ccc(F)c(Br)c1` (configuration not stated) the entry was “in the range around 55 nM”.

Take `Cc1cc(NC(=O)N2CCc3[nH]nc(C4CCC4)c3C2)ccc1F`: the half-maximal effective concentration (EC50) entry was “in the range around 55 nM”.

Take `Cc1cc(NC(=O)N2Cc3c(C4CCC4)n[nH]c3CC2C)ccc1F` (configuration not stated): the EC50 result was “in the range around 55 nM”. With `N#Cc1cc(NC(=O)N2CCc3[nH]nc(C4CCC4)c3C2)ccc1F` the entry was “in the range around 55 nM”.
